From US11331364B2, “Use for JNK inhibitor molecules for treatment of various diseases” (Xigen Inflammation Ltd., priority 2014, dated 2022) come the findings set out here.

pIC50: −log10 of the molar value. Where two headings read alike, the source gives them in different places. Square brackets hold non-standard residues; d marks the D form. Peptide text beside a SMILES is read from it.

For one assay, the target named is hJNK2 (Homo sapiens, UniProt P45984). Kind of assay: hJNK2 | IC50. From the text: (§1) Table printed on a drawing sheet, Fig. 4
Sequence of hJNK2 (P45984 whole entry, looked up): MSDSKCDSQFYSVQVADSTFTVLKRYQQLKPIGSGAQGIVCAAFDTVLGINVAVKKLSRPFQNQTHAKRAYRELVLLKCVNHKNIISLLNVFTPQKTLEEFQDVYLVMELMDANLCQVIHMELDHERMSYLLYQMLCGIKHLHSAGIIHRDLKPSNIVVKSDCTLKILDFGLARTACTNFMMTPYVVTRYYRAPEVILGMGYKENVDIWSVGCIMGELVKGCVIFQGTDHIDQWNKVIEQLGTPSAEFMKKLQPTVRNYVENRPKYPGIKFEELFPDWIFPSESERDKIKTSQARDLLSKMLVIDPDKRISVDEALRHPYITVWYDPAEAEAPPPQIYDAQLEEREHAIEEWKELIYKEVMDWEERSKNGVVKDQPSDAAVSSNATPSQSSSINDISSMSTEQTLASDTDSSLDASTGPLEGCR
Head of the field: hJNK2 | IC50
(§2) The patent's description of the figure: FIG. 4: Table illustrating the inhibitory efficacy of several JNK inhibitors according to the present invention, which are fusion proteins of a JNK inhibitory (poly-)peptide sequence and a transporter sequence. Given are the IC50 values in the nM range, the respective standard error of the mean (SEM) and the number of experiments performed (n).
(§3) First copying reader's note: The sheet prints no unit for IC50 (the description says nM range); decimal commas are used, except for three IC50 cells printed with a point (3820.81, 5340.33, 8130.86).
Where the first naming reader finds the target: head: hJNK2 | IC50

For a further assay, the target named is T1, hJNK1 (Homo sapiens, UniProt P45983).
T1 construct: His; purchased Upstate 14-327
T1 sequence (P45983 whole entry, looked up): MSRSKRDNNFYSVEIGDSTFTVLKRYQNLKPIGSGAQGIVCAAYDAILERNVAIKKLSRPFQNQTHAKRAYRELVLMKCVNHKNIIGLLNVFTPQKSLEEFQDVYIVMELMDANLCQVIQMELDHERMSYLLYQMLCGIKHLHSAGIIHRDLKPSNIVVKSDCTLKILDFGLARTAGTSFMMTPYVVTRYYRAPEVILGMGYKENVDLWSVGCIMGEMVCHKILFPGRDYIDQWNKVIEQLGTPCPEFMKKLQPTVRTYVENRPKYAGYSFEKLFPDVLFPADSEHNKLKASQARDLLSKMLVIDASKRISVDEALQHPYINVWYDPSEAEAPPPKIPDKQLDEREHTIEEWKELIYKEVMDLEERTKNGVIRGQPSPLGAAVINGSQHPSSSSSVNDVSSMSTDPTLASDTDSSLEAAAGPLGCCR
Kind of assay: hJNK1 | IC50.
Source text: as §1
Head of the field: hJNK1 | IC50
as §2, §3
Where the first naming reader finds the target: head: hJNK1 | IC50

The target of another assay is hJNK3 (Homo sapiens, UniProt P53779). Kind of assay: hJNK3 | IC50.
Sequence of hJNK3 (P53779 whole entry, looked up): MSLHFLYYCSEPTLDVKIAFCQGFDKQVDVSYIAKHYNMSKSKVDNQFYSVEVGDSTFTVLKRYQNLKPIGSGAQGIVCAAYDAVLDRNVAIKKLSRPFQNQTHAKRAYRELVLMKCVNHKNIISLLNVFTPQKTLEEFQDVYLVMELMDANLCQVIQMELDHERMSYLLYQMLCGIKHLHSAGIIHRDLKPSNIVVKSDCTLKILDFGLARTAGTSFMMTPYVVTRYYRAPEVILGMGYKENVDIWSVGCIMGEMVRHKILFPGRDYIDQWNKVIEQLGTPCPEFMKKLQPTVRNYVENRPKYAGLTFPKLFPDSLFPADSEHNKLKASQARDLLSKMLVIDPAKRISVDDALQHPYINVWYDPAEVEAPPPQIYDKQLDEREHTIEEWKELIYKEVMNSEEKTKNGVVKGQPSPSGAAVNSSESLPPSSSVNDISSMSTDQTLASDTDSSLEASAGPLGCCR
Source text: as §1
Head of the field: hJNK3 | IC50
as §2, §3
Where the first naming reader finds the target: head: hJNK3 | IC50

Consider `CC(C)C[C@H](NC(=O)[C@H](CC(N)=O)NC(=O)[C@H](CC(C)C)NC(=O)[C@@H](NC(=O)[C@@H](NC(=O)[C@@H]1CCCN1C(=O)[C@H](CCCNC(=N)N)NC(=O)[C@H](CCCNC(=N)N)NC(=O)[C@H](CCCNC(=N)N)NC(=O)[C@H](CCC(N)=O)NC(=O)[C@H](CCCNC(=N)N)NC(=O)[C@H](CCCNC(=N)N)NC(=O)[C@H](CCCCN)NC(=O)[C@H](CCCCN)NC(=O)[C@H](CCCNC(=N)N)NC(=O)CN)[C@@H](C)O)[C@@H](C)O)C(=O)N[C@@H](Cc1ccccc1)C(=O)N1CCC[C@H]1C(=O)N[C@@H](CCC(N)=O)C(=O)N[C@H](C(=O)N1CCC[C@H]1C(=O)N[C@@H](CCCNC(=N)N)C(=O)N[C@@H](CO)C(=O)N[C@@H](CCC(N)=O)C(=O)N[C@@H](CC(=O)O)C(N)=O)C(C)C` [SEQ ID NO: 195] (H-GRKKRRQRRRPTTLNLFPQVPRSQD-NH2), for which the values for the pIC50 on hJNK2, on hJNK1 and at hJNK3 were 7.95, 7.97 and 8.31, respectively.

Regarding `CC(C)C[C@H](NC(=O)[C@H](CC(N)=O)NC(=O)[C@H](CC(C)C)NC(=O)[C@@H](NC(=O)[C@@H](NC(=O)[C@@H]1CCCN1C(=O)[C@H](CCCNC(=N)N)NC(=O)[C@H](CCCCN)NC(=O)[C@@H]1CCCN1C(=O)[C@H](CCCNC(=N)N)NC(=O)[C@@H]1CCCN1C(=O)[C@@H]1CCCN1C(=O)[C@H](CCCNC(=N)N)NC(=O)[C@H](CCCNC(=N)N)NC(=O)[C@H](CCCNC(=N)N)NC(=O)[C@H](CCC(N)=O)NC(=O)[C@H](CCCNC(=N)N)NC(=O)[C@H](CCCNC(=N)N)NC(=O)[C@H](CCCCN)NC(=O)[C@H](CCCCN)NC(=O)[C@H](CCCNC(=N)N)NC(=O)CN)[C@@H](C)O)[C@@H](C)O)C(=O)N[C@@H](Cc1ccccc1)C(=O)N1CCC[C@H]1C(=O)N[C@@H](CCC(N)=O)C(=O)N[C@H](C(=O)N1CCC[C@H]1C(=O)N[C@@H](CCCNC(=N)N)C(=O)N[C@@H](CO)C(=O)N[C@@H](CCC(N)=O)C(=O)N[C@@H](CC(=O)O)C(N)=O)C(C)C` [SEQ ID NO: 196] (H-GRKKRRQRRRPPRPKRPTTLNLFPQVPRSQD-NH2), the pIC50 against hJNK2 was 8.07; on hJNK1, 7.37; against hJNK3 it was 8.28.

`CC(C)C[C@@H](NC(=O)[C@@H](Cc1ccccc1)NC(=O)[C@H]1CCCN1C(=O)[C@@H](CCC(N)=O)NC(=O)[C@H](NC(=O)[C@H]1CCCN1C(=O)[C@@H](CCCNC(=N)N)NC(=O)[C@@H](CO)NC(=O)[C@@H](CCC(N)=O)NC(=O)[C@H](N)CC(=O)O)C(C)C)C(=O)N[C@H](CC(N)=O)C(=O)N[C@H](CC(C)C)C(=O)N[C@@H](C(=O)N[C@@H](C(=O)N1CCC[C@@H]1C(=O)N[C@H](CCCNC(=N)N)C(=O)N[C@H](CCCCN)C(=O)N1CCC[C@@H]1C(=O)N[C@H](CCCNC(=N)N)C(=O)N1CCC[C@@H]1C(=O)N1CCC[C@@H]1C(=O)N[C@H](CCCNC(=N)N)C(=O)N[C@H](CCCNC(=N)N)C(=O)N[C@H](CCCNC(=N)N)C(=O)N[C@H](CCC(N)=O)C(=O)N[C@H](CCCNC(=N)N)C(=O)N[C@H](CCCNC(=N)N)C(=O)N[C@H](CCCCN)C(=O)N[C@H](CCCCN)C(=O)N[C@H](CCCNC(=N)N)C(=O)NCC(N)=O)[C@H](C)O)[C@H](C)O` [SEQ ID NO: 197, dqsrpvqpflnlttprkprpprrrqrrkkrg] (H-[dD][dQ][dS][dR][dP][dV][dQ][dP][dF][dL][dN][dL][dT][dT][dP][dR][dK][dP][dR][dP][dP][dR][dR][dR][dQ][dR][dR][dK][dK][dR]G-NH2): the pIC50 was 6.10 at hJNK2 (read-out: hJNK2 | IC50), 4.61 at hJNK1 (read-out: hJNK1 | IC50) and 5.89 at hJNK3 (read-out: hJNK3 | IC50).

In general, pIC50 refers to −log10 of the IC50, conventionally taken in molar units.
